From patent US20260265235A1, “BICYCLOAMINE CARBOXAMIDE DERIVATIVE” (Sumitomo Pharma Co., Ltd., priority 2022, published 2026)

Target: T1, Human orexin receptor type 2 (Homo sapiens, UniProt O43614)
T1 construct: expressed in transfected cells; host or cells: CHO cells (transient expression, with apoaequorin)
T1 sequence (O43614 1-444): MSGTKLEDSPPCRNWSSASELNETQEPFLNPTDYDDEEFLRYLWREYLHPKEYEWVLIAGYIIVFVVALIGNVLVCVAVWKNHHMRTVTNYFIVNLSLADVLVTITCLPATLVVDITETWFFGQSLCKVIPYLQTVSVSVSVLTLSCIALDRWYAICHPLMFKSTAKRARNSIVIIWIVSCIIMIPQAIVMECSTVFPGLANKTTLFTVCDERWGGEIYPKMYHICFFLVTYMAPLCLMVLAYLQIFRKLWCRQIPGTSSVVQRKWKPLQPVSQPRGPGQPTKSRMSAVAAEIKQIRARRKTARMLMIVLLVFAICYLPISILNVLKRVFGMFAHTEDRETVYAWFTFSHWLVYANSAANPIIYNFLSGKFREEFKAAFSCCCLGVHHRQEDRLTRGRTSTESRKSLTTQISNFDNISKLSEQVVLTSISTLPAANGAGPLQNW
Assay: Test Example 2: agonist activity for orexin receptor type 2 (aequorin luminescence, intracellular calcium mobilization in CHO cells)
Format: cell-based
Settings: compound 10 μM; relative percentage of luminescence for the luminescence (100%) of Orexin A (100 μM); CHO cells transiently expressing human orexin receptor type 2 and apoaequorin
Experimental: Test Example 2: Measurement of Agonist Activity for Orexin Receptor Type 2
Human orexin receptor type 2 and apoaequorin were transiently expressed in CHO cells, and the agonist activity was evaluated based on intracellular calcium mobilization with ligand stimulation. The CHO cells transiently-expressed human orexin receptor type 2 and apoaequorin were seeded on a 384-well plate by 2,000 cells/well, and then incubated for 16-22 hours. After the plate was returned to room temperature, Coelenterazine hcp (final concentration: 1 μM) was added to the plate, and the plate was allowed to stand at room temperature for 2 hours. And then, Orexin A (PEPTIDE INSTITUTE, INC., Lot. 711101) or each test compound was added to the plate, and the luminescence of the cells was measured with FDSS7000 (Hamamatsu Photonics K.K.), wherein Orexin A and each test compound were dissolved in DMSO (final concentration: 0.1%), and diluted with a buffer (Hanks, 20 mM HEPES, 0.1% BSA). The agonist activity of each test compound for orexin receptor type 2 was calculated as relative percentage of luminescence for the luminescence (100%) of Orexin A (100 μM).
Each agonist activity of the compounds obtained in Examples (10 μM) for orexin receptor type 2 is shown in the table below as relative percentage of luminescence for the luminescence (100%) of Orexin A (100 μM).

Compound | Agonist Activity (%)
CC(C)N1CCN([C@H]2CCCC(F)(F)[C@@H]2NC(=O)N2C[C@@H]3CN(c4cccc(F)c4)C[C@@H]3C2)CC1 [Example 22, (3aR,6aS)—N-{(1R,6S)-2,2-difluoro-6-[4-(propan-2-yl)piperazin-1-yl]cyclohexyl}-5-(3-fluorophenyl)hexahydropyrrolo[3,4-c]pyrrole-2(1H)-carboxamide] | 399%
CC(C)N1CCN([C@H]2CCCC(F)(F)[C@@H]2NC(=O)N2C[C@H]3C[C@@H](c4ncccn4)C[C@H]3C2)CC1 [Example 26, (3aR,5R,6aS)—N-{(1R,6S)-2,2-difluoro-6-[4-(propan-2-yl)piperazin-1-yl]cyclohexyl}-5-(pyrimidin-2-yl)hexahydropenta[c]pyrrole-2(1H)-carboxamide] | 345%
CC(C)N1CC[C@H](N(C)[C@H]2CCCC(F)(F)[C@@H]2NC(=O)N2C[C@@H]3CN(c4ccccc4)C[C@@H]3C2)C1 [Example 34, (3aR,6aS)—N-[(1R,6S)-2,2-difluoro-6-{methyl[(3S)-1-(propan-2-yl)pyrrolidin-3-yl]amino}cyclohexyl]-5-phenylhexahydropyrrolo[3,4-c]pyrrole-2(1H)-carboxamide] | 341%
Cc1nc(C2C[C@@H]3CN(C(=O)N[C@@H]4[C@@H](N(C)[C@H]5CCN(C(C)C)C5)CCCC4(F)F)C[C@@H]3C2)no1 (stereo partly drawn) [Example 31, (3aR,5R,6aS)—N-[(1R,6S)-2,2-difluoro-6-{methyl[(3S)-1-(propan-2-yl)pyrrolidin-3-yl]amino}cyclohexyl]-5-(5-methyl-1,2,4-oxadiazol-3-yl)hexahydropenta[c]pyrrole-2(1H)-carboxamide] | 252%
